Experimental data taken from PubChem BioAssay (NCI).
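All cell lines were grown in 96-well plates and treated with compound for 48 hours. GI50 is the concentration that inhibits growth by half. TGI is the concentration that stops growth completely.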

Experiments:
Assay in all cases: NCI tumour cell line growth inhibition, 48 h
786-0 renal = tested on: 786-0 renal
A498 renal = tested on: A498 renal
A549 NSCLC = tested on: A549 NSCLC
ACHN renal = tested on: ACHN renal
BT-549 breast = tested on: BT-549 breast
CAKI-1 renal = tested on: CAKI-1 renal
CCRF-CEM leukemia = tested on: CCRF-CEM leukemia
COLO 205 colon = tested on: COLO 205 colon
DU-145 prostate = tested on: DU-145 prostate
EKVX NSCLC = tested on: EKVX NSCLC
HCC-2998 colon = tested on: HCC-2998 colon
HCT-116 colon = tested on: HCT-116 colon
HCT-15 colon = tested on: HCT-15 colon
HL-60(TB) leukemia = tested on: HL-60(TB) leukemia
HOP-62 NSCLC = tested on: HOP-62 NSCLC
HOP-92 NSCLC = tested on: HOP-92 NSCLC
HS 578T breast = tested on: HS 578T breast
HT29 colon = tested on: HT29 colon
IGROV1 ovarian = tested on: IGROV1 ovarian
K-562 leukemia = tested on: K-562 leukemia
KM12 colon = tested on: KM12 colon
LOX IMVI melanoma = tested on: LOX IMVI melanoma
M14 melanoma = tested on: M14 melanoma
MALME-3M melanoma = tested on: MALME-3M melanoma
MCF7 breast = tested on: MCF7 breast
MDA-MB-231 breast = tested on: MDA-MB-231 breast
MDA-MB-435 = tested on: MDA-MB-435
MOLT-4 leukemia = tested on: MOLT-4 leukemia
NCI-H226 lung = tested on: NCI-H226 lung

Q: With `COC(=O)c1c2c(c(C)[n+]([O-])c1C)C(=O)C=C(NCc1ccc(F)c(Cl)c1)C2=O` as the compound, how does the GI50 (786-0 renal) read?
A: The GI50 was 1130 nM.

Q: And the TGI (786-0 renal)?
A: The TGI was 3600 nM.

Q: What about the GI50 (A498 renal) of the same compound?
A: Its GI50 is 437 nM.

Q: What about the TGI (A498 renal) of the same compound?
A: The TGI was 2050 nM.

Q: And the GI50 (A549 NSCLC)?
A: Its GI50 is 352 nM.

Q: And the TGI (A549 NSCLC)?
A: The TGI was 1950 nM.

Q: What about the GI50 (ACHN renal) of the same compound?
A: Its GI50 is 126 nM.

Q: And the TGI (ACHN renal)?
A: The TGI was 1810 nM.

Q: What about the GI50 (BT-549 breast) of the same compound?
A: The GI50 was 1010 nM.

Q: And the TGI (BT-549 breast)?
A: The TGI was 2430 nM.

Q: And the GI50 (CAKI-1 renal)?
A: Its GI50 is 55.9 nM.

Q: And the TGI (CAKI-1 renal)?
A: Its TGI is 1900 nM.

Q: And the GI50 (CCRF-CEM leukemia)?
A: Its GI50 is 475 nM.

Q: What about the TGI (CCRF-CEM leukemia) of the same compound?
A: Its TGI is 4710 nM.

Q: And the GI50 (COLO 205 colon)?
A: The GI50 was 245 nM.

Q: What about the TGI (COLO 205 colon) of the same compound?
A: Its TGI is 863 nM.

Q: And the GI50 (DU-145 prostate)?
A: The GI50 was 566 nM.

Q: And the TGI (DU-145 prostate)?
A: Its TGI is 2070 nM.

Q: What about the GI50 (EKVX NSCLC) of the same compound?
A: Its GI50 is 592 nM.

Q: And the TGI (EKVX NSCLC)?
A: Its TGI is 2270 nM.

Q: And the GI50 (HCC-2998 colon)?
A: Its GI50 is 187 nM.

Q: What about the TGI (HCC-2998 colon) of the same compound?
A: Its TGI is 1410 nM.

Q: What about the GI50 (HCT-116 colon) of the same compound?
A: Its GI50 is 130 nM.

Q: And the TGI (HCT-116 colon)?
A: The TGI was 1030 nM.

Q: What about the GI50 (HCT-15 colon) of the same compound?
A: Its GI50 is 85.5 nM.

Q: What about the TGI (HCT-15 colon) of the same compound?
A: The TGI was 1630 nM.

Q: And the GI50 (HL-60(TB) leukemia)?
A: Its GI50 is 270 nM.

Q: And the TGI (HL-60(TB) leukemia)?
A: The TGI was 895 nM.

Q: What about the GI50 (HOP-62 NSCLC) of the same compound?
A: Its GI50 is 718 nM.

Q: What about the TGI (HOP-62 NSCLC) of the same compound?
A: The TGI was 2330 nM.

Q: And the GI50 (HOP-92 NSCLC)?
A: Its GI50 is 1690 nM.

Q: What about the TGI (HOP-92 NSCLC) of the same compound?
A: The TGI was 3840 nM.

Q: What about the GI50 (HS 578T breast) of the same compound?
A: Its GI50 is 1620 nM.

Q: And the TGI (HS 578T breast)?
A: Its TGI is 6480 nM.

Q: And the GI50 (HT29 colon)?
A: The GI50 was 243 nM.

Q: And the TGI (HT29 colon)?
A: Its TGI is 2150 nM.

Q: What about the GI50 (IGROV1 ovarian) of the same compound?
A: Its GI50 is 421 nM.

Q: What about the TGI (IGROV1 ovarian) of the same compound?
A: Its TGI is 1910 nM.

Q: And the GI50 (K-562 leukemia)?
A: The GI50 was 31.5 nM.

Q: What about the TGI (K-562 leukemia) of the same compound?
A: Its TGI is 5270 nM.

Q: What about the GI50 (KM12 colon) of the same compound?
A: Its GI50 is 51.5 nM.

Q: What about the TGI (KM12 colon) of the same compound?
A: Its TGI is 1580 nM.

Q: And the GI50 (LOX IMVI melanoma)?
A: The GI50 was 25.8 nM.

Q: What about the TGI (LOX IMVI melanoma) of the same compound?
A: The TGI was 1350 nM.

Q: And the GI50 (M14 melanoma)?
A: The GI50 was 117 nM.

Q: And the TGI (M14 melanoma)?
A: Its TGI is 1450 nM.

Q: And the GI50 (MALME-3M melanoma)?
A: The GI50 was 149 nM.

Q: And the TGI (MALME-3M melanoma)?
A: The TGI was 332 nM.

Q: And the GI50 (MCF7 breast)?
A: Its GI50 is 169 nM.

Q: And the TGI (MCF7 breast)?
A: The TGI was 892 nM.

Q: What about the GI50 (MDA-MB-231 breast) of the same compound?
A: The GI50 was 269 nM.

Q: And the TGI (MDA-MB-231 breast)?
A: The TGI was 3420 nM.

Q: What about the GI50 (MDA-MB-435) of the same compound?
A: The GI50 was 51.5 nM.

Q: And the TGI (MDA-MB-435)?
A: Its TGI is 173 nM.

Q: And the GI50 (MOLT-4 leukemia)?
A: Its GI50 is 404 nM.

Q: What about the TGI (MOLT-4 leukemia) of the same compound?
A: The TGI was 2190 nM.

Q: And the GI50 (NCI-H226 lung)?
A: Its GI50 is 1260 nM.

Q: What about the TGI (NCI-H226 lung) of the same compound?
A: Its TGI is 3260 nM.
